In patent US20220135538A1, “P300/CBP HAT INHIBITORS AND METHODS FOR THEIR USE” (Constellation Pharmaceuticals, Inc., priority 2019, published 2022):

Key:
[1] = test system: acetylation of chromatin at H3K18 in HCT-116 cells; test: H3K18Ac MSD cellular assay; type: cell-based; conditions: Homo sapiens, 2 hr treatment
Method: Select compounds were also evaluated in a H3K18Ac MSD cellular assay that measures the ability of compounds to inhibit the acetylation of chromatin at H3K18, a process catalyzed by p300 and CBP. In a typical experiment the p300 HAT inhibitory activity inside cells of the compounds described herein was determined in accordance with the following experimental method. 20 k HCT-116 cells per well are plated in 75 μL RPMI+10% FBS media the night before treatment. Compounds plated in DMSO at 4× final concentration are resuspended in 30 μL RPMI+10% FBS, then 25 μL is combined with corresponding wells containing cells. Treated cells are incubated for 2 hr at 37° C., then lysed in 500 μL final volume and frozen at −80° C. MSD plates (Meso Scale Discovery) are coated overnight at 4° C. with 60 μL 1:500 α-total histone antibody (Millipore MAB3422) in PBS. Plates are then blocked with 5% BSA in TBST shaking at RT for 1 hr, washed, and 30 μL lysate added to each well for 2 hr shaking at RT. Plates are washed and 25 μL 1:216 α-H3K18ac antibody (CST 9675) in PBS added, then incubated for 1 hr shaking at RT. Plates are washed again, then 25 μL 1:1000 Sulfo-Tag goat α-rabbit antibody (Meso Scale Discovery R32Ab-1) in PBS is added for 1 hr shaking at RT. Plates are washed once more, then 150 μL 1× Read Buffer (MSD #R92TD-3) is added to all wells and read on MSD SECTOR Imager 2400 using the conventional read setup.

[2] = target: T1, p300 HAT domain (residues 1287-1666) (Homo sapiens, UniProt Q09472); test: P300 HAT SPA assay (scintillation proximity, acetylation of biotinylated H3(1-21) peptide); type: biochemical; conditions: 6 nM p300-HAT domain; average of at least 2 replicate titrations
T1 construct: The p300 HAT domain (residues 1287-1666) was expressed; His tag (N); made in house; host or cells: Escherichia coli
T1 sequence (Q09472 1287-1666): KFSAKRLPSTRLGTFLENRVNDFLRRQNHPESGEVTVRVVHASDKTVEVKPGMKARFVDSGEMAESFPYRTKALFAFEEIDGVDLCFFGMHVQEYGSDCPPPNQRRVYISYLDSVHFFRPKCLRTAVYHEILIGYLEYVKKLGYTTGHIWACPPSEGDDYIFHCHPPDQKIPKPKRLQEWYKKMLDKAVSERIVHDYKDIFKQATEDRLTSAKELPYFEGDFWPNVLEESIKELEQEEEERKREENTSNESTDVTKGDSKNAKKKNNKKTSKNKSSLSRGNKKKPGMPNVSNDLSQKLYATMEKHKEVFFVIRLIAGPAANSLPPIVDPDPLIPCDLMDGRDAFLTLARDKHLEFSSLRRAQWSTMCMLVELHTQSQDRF
Method: The activity of the compounds described herein as p300/CBP HAT inhibitors may be readily determined using a scintillation proximity assay (SPA) methodology (Udenfriend, S.; Gerber, L.; Nelson, N. Scintillation Proximity Assay: A Sensitive and Continuous Isotopic Method for Monitoring Ligand/Receptor and Antigen/Antibody Interactions. Anal. Biochem. 1987, 161, 494-500).
In a typical experiment the p300 HAT inhibitory activity of the compounds described herein was determined in accordance with the following experimental method.
The p300 HAT domain (residues 1287-1666) was expressed and purified with an N-terminal His tag from Escherichia coli cells. The expressed protein was purified by Ni2+affinity, followed by anion exchange chromatography. Appropriate fractions were pooled and buffer exchanged into 20 mM Hepes pH 7.5, 150 mM NaCl, and 1 mM TCEP.
(§1) Compounds of interest solubilized in DMSO were stamped in a Greiner black 384-well plate in a 10-point duplicate dose response using an Echo 550 (Labcyte). p300-HAT domain purified in-house (aa 1287-1666) was diluted to 6 nM in reaction buffer (50 mM Tris pH 8.0, 100 mM NaCl, 1 mM DTT, 0.069 mM Brij-35, 0.1 mM EDTA, 0.1 mg/mL BSA), combined with 4.14 μM AcCoA (Sigma-Aldrich) and 0.46 μM ^3H-AcCoA (PerkinElmer), and 12.5 μL added to each well and incubated for 30 min at RT. Reactions were initiated with 12.5 μL 2 μM biotinylated H3(1-21) peptide (New England Peptide) and run for 1 hr at RT, then quenched with 20 μL stop solution (200 mM Tris pH 8.0, 200 mM EDTA, 2M NaCl, 160 μM anacardic acid). 35 μL of the reaction volume was transferred to a 384-well streptavidin FlashPlate (PerkinElmer) using a Bravo liquid handler (Velocity 11) and incubated for 1.5 hr at RT. Plates were aspirated, washed with 95 μL wash buffer (15 mM Tris pH 8.5, 0.069 μM Brij-35), aspirated, sealed, and scintillation counts read on a Topcount (PerkinElmer). Data were analyzed in Genedata to determine inhibitor IC50 values.

full length p300 = target: T2, full length p300 (Homo sapiens, UniProt Q09472); test: Full length p300 SPA assay; type: biochemical; conditions: 6 nM purified full length p300; read-out: FL P300 IC50
T2 construct: used 6 nM purified full length p300 (purchased from Active Motif); purchased Active Motif
T2 sequence (Q09472 whole entry): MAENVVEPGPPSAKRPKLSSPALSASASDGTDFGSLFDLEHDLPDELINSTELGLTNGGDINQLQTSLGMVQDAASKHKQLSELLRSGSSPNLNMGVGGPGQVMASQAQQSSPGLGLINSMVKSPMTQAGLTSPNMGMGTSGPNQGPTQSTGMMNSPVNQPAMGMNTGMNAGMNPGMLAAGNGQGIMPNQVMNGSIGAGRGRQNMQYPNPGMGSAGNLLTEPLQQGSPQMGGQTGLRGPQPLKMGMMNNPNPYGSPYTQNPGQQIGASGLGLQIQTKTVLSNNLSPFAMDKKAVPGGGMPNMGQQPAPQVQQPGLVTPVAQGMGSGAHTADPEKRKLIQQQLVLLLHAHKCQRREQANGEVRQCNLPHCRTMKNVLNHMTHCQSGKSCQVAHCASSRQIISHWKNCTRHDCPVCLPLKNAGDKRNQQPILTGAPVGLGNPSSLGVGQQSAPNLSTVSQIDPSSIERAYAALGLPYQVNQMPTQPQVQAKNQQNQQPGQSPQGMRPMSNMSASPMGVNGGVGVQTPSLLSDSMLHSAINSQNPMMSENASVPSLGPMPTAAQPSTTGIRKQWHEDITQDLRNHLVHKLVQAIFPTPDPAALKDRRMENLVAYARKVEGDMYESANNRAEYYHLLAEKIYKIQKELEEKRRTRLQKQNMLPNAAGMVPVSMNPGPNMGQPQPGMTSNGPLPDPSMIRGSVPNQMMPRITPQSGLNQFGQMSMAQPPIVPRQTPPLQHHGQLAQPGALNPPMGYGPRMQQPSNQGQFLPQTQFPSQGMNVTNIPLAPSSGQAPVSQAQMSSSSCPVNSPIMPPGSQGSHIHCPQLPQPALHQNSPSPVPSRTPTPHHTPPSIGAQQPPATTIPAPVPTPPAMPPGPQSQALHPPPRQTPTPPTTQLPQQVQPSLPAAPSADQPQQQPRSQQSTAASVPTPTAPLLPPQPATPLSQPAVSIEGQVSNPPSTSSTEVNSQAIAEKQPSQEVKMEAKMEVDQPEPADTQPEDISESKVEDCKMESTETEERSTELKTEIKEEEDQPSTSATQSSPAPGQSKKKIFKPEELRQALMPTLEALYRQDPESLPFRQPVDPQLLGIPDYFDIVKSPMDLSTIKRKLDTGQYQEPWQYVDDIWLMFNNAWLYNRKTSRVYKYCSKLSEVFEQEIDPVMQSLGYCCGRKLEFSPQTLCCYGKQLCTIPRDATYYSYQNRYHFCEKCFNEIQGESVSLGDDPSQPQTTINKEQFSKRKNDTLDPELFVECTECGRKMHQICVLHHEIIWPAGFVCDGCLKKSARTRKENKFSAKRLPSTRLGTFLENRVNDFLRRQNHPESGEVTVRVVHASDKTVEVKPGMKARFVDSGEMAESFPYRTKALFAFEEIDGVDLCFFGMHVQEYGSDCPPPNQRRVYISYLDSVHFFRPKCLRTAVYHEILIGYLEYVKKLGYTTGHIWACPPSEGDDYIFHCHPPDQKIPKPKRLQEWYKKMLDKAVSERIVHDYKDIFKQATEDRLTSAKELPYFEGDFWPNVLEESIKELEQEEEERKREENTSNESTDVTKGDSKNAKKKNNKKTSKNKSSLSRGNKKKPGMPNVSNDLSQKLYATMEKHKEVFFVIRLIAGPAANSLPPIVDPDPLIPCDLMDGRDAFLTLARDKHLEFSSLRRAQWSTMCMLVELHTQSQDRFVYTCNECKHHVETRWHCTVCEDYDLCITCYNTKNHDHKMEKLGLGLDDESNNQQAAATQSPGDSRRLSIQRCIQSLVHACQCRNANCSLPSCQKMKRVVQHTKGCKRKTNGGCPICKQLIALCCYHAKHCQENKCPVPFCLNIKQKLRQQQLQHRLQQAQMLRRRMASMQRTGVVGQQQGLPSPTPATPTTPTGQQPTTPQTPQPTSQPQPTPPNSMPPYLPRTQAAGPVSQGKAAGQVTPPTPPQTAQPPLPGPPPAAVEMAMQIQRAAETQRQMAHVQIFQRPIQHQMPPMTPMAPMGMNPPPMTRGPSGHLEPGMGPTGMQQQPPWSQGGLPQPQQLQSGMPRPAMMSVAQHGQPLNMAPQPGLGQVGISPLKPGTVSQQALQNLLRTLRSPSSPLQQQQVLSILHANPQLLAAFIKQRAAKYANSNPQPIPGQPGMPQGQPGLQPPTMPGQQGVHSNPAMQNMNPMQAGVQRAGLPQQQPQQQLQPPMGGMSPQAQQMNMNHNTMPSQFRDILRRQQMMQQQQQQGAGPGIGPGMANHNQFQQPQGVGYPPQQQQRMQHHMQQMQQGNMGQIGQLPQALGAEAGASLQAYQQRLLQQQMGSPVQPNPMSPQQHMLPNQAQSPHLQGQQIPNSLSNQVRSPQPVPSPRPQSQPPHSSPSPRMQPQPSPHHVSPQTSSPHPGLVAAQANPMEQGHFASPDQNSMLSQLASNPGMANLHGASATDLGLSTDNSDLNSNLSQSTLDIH
Method: as §1
The full length p300 SPA assay was run following the same protocol as p300 HAT SPA assay, but used 6 nM purified full length p300 (purchased from Active Motif) in place of the purified p300-HAT domain.

An EC50 [1] of 57 nM, an IC50 [2] of 38 nM and an IC50 (full length p300) of less than 3 nM were found for `CC(=O)N1CC(Oc2ccc(NC(=O)C(NCC(C)c3ccc(C#N)cc3)c3cnn(C)c3)nc2)C1` (single isomer, unassigned) [24 Isomer 1] in this work.
